These are literature values, as cited in US20160317610A1, “COMPOSITIONS AND METHODS FOR TREATING OVARIAN CANCER INCLUDING PREVENTING THE […]” (University of Southern California, priority 2013, published 2016).

SMILES strings stand for the structures.

The test system of this series is advanced OC.

In the case of `CC(C)[C@H]1C(=O)N[C@@H](CCCN=C(N)N)C(=O)NCC(=O)N[C@@H](CC(=O)O)C(=O)N[C@H](Cc2ccccc2)C(=O)N1C` [Cilengitide, cyclo(L-Arg-Gly-L-Asp-D-Phe-N-methyl-L-Val)], the clinical efficacy result is “failed to show clinical efficacy”.
